Measurements: patent US20250197368A1 (priority 2020, published 2025)
Counter-ions that a name gives are not always drawn.

Columns and labels:
human α2β3γ2 GABAARs = assay: In vitro electrophysiological recording assay (automated patch-clamp), α2-GABAAR relative efficacy; type: cell-based; conditions: % efficacy normalised to diazepam; GABA EC10-20; concentration generally >= 100 times Ki
Description: The efficacy of modulators was evaluated using the automated patch-clamp platforms QPatch16 (Sophion, Copenhagen, Denmark) or SyncroPatch 384PE (Nanion, Germany).
For QPatch electrophysiology testing L(tk^−) cells stably expressing human α1β3γ2, α2β3γ2, α3β3γ2, α5β3γ2 GABAARs were used. HEK293 cells stably expressing human α1β3γ2L, α2β3γ2L, α3β3γ2L and α5β3γ2L GABAARs were used for the SyncroPatch 384PE experiments.
All experiments were carried out at room temperature (20-22° C.) using a standard whole cell procedure and physiological solutions. Gigaseals were formed upon execution of a combined suction/voltage protocol with subsequent increased suction leading to the whole-cell configuration.
The currents recorded were acquired at either 1 KHz or 2 KHz and filtered using a Bessel filter. Whole-cell currents were measured at a holding potential of-65 mV (QPatch) or −80 mV (SyncroPatch).
For QPatch experiments, the extracellular solution contained of: 145 mM NaCl, 4 mM KCl, 1 mM MgCl2, 2 mM CaCl2), 10 mM HEPES, 10 mM D-glucose (pH 7.4), and the intracellular solution consisted of: 96 mM KCl, 28 mM CsCl, 25 mM KOH, 4.3 mM CaCl2), 1.4 mM MgCl2, 10 mM EGTA, 10 mM HEPES, 3 mM MgATP (pH 7.2). The osmolarities of the extracellular and intracellular solutions were 305 and 295 mOsm respectively.
For SyncroPatch experiments, the extracellular recording solution contained: 140 mM NaCl, 4 mM KCl, 2 mM CaCl2), 1 mM MgCl2, 10 mM HEPES, 5 mM glucose (pH 7.4 with NaOH and osmolarity of c. 300-310 mOsm). The intracellular recording solution consisted of: 90 mM KCl, 50 mM KF, 1.5 mM MgCl2, 11.1 mM EGTA and 10 mM HEPES (pH 7.2 with KOH and osmolarity of c. 300 mOsm). 2 mM of NaATP was added to the intracellular solution on the day of testing.
The effects of modulators were evaluated in the presence of a submaximal GABA concentration, giving typically less than 30% activation of the response elicited by a saturating GABA concentration. To check and ensure baseline current stability before compound addition, two to five consecutive applications of GABA EC10-20 separated by wash steps were performed before compound addition. The test compound was applied 1 min at least prior to co-application with GABA EC10-20. Following a further wash step, a saturating concentration of GABA was applied at the end of each recording, allowing the accurate evaluation for each cell of the percentage baseline activation elicited by the submaximal GABA applied.
The compounds were first dissolved in DMSO as a 10 mM stock and then further diluted to the testing concentrations so that the final DMSO concentration in the extracellular recording solution was 0.1% (QPatch) or 0.2% (SyncroPatch).
The % efficacy of modulators was determined from the GABA elicited currents recorded in the presence and absence of the test compound, using the formula:
[((compound peak current−leak)−(GABA peak current-leak))/(GABA peak current−leak)]*100,
where ‘leak’ is the leak baseline current at the holding potential, ‘compound peak current’ is the current elicited by co-application of compound and GABA, and ‘GABA peak current’ is the current elicited by GABA alone at the last GABA application before compound addition. The results were presented as ‘relative efficacy’ for each compound generally at a concentration equal or higher than 100 times their determined Ki. The relative efficacy of a compound was calculated by normalising its % efficacy to the corresponding % efficacy of diazepam that was separately determined.

[1] = target: human α2β3γ2 GABAARs (benzodiazepine site) (Homo sapiens (Human), UniProt P18507+P47869); assay: In vitro radioligand binding assay ([3H]Ro15-1788 displacement), α2-GABAAR Ki
Description: The affinity (Ki) of compounds for the benzodiazepine site of human recombinant GABAARs was measured by their ability to inhibit the binding of the selective benzodiazepine antagonist [^3H]Ro15-1788 ([^3H] flumazenil).
Mouse L(tk^−) cells stably expressing human α1β3γ2, α2β3γ2, α3β3γ2, α5β3γ2 GABAARs were generated by transfection of the individual subunits in the dexamethasone-inducible expression vector pMSGneo in mouse L(tk^−) cells (Hadingham et al., 1993, Mol. Pharmacol. 43:970-975 and 1993, Mol. Pharmacol. 44:1211-1218).
L(tk^−) cells stably expressing human α1β3γ2, α2β3γ2, α3β3γ2, α5β3γ2 GABAARs were maintained in DMEM F12 medium supplemented with 10% Foetal Bovine Serum, 1% Penicillin/Streptomycin and 1 mg/mL Geneticin G418 in an incubator at 37° C. with a humidified atmosphere with 5% CO2. Dexamethasone was added to the culture medium to induce GABAAR expression.
L(tk−) cells were harvested and membranes were prepared for each receptor combination in either TE buffer (10 mM Tris·CI/0.1 mM EDTA, pH 7.5) or phosphate buffer (K2PO4 10 mM, pH 7.0) (Hadingham et al. (1992) Proc. Natl. Acad. Sci. USA; 89 (14): 6378-82). Protein concentration, receptor expression and the Kd of [^3H]Ro15-1788 were determined before Ki value of the compounds were evaluated. For Kd evaluation, saturation binding curves were obtained by incubating membrane with various concentrations of [^3H]Ro15-1788 (82.5 Ci/mM), with nonspecific binding measured in the presence of 1-3 μM TP003.
For Ki evaluation, cell membranes were incubated with 4 nM [^3H]Ro15-1788 along with a range of concentrations of test compound. Nonspecific binding was determined using 1-3 μM TP003. All incubations were performed for 1 hour at 4° C. in assay buffer. The total assay volume was 0.5 mL, containing 40 μg/well α1β3γ2, 30 μg/well α2β3γ2, 40 μg/well α3β3γ2 and 30 μg/well for α5β3γ2 of membrane protein. Incubations were terminated by filtration and washing with ice cold Tris-HCl buffer (50 mM, pH=7.4) over Whatman GF/B filters and the radioactivity of the filters was measured using liquid scintillation counting.
The % inhibition of [^3H]Ro15-1788 binding was plotted as a function of compound concentration and the IC50 calculated. From the IC50, the affinity (Ki) was calculated using the method of Cheng and Prusoff using the Kd values obtained for [^3H]Ro15-1788.

Sequence of human α2β3γ2 GABAARs (benzodiazepine site) (P47869 29-451): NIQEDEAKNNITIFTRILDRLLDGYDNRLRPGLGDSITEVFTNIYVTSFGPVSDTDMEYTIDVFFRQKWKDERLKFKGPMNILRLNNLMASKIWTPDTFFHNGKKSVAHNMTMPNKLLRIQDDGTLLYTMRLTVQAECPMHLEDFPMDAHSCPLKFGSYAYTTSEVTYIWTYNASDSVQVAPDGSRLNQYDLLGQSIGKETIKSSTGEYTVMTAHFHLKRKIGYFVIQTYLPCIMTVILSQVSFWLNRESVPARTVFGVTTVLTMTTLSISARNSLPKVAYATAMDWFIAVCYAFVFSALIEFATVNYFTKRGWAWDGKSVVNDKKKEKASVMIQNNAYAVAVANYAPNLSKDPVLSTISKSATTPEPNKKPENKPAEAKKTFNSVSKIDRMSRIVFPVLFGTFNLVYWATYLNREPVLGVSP
Sequence of human α2β3γ2 GABAARs (benzodiazepine site) (P28472 26-473 partner): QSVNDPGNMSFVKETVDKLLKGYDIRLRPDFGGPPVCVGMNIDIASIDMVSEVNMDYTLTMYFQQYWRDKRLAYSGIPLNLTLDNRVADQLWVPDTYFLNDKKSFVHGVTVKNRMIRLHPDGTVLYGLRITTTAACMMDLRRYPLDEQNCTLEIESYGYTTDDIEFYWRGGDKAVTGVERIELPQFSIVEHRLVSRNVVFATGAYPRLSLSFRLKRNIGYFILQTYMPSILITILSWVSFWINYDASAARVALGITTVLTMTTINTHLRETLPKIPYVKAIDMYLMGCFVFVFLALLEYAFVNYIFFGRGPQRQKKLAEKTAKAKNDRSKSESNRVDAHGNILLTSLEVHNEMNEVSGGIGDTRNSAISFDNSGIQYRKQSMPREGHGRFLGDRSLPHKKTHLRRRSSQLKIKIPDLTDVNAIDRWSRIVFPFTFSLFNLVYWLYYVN
Sequence of human α2β3γ2 GABAARs (benzodiazepine site) (P18507 40-475): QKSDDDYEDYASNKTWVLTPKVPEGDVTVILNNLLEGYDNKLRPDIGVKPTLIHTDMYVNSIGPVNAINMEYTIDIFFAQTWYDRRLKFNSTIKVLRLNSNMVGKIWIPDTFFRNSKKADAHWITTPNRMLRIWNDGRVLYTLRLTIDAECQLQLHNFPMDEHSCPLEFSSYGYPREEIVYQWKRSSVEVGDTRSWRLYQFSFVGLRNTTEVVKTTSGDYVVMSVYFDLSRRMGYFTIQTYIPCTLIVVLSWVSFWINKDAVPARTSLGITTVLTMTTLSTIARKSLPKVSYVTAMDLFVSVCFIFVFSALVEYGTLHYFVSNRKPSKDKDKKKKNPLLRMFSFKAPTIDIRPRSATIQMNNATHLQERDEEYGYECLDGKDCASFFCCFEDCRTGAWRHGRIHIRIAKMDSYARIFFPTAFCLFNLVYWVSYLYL

## CCCNC(=O)c1c(N)c2cccc(-c3cc(OCC4CCOCC4)ccc3F)c2[nH]c1=O [Example 135, 4-Amino-8-[2-fluoro-5-(tetrahydropyran-4-ylmethoxy)phenyl]-2-oxo-N-propyl-1H-quinoline-3-carboxamide]
Human α2β3γ2 GABAARs
  α2-GABAAR Relative Efficacy (vs. Diazepam): 0.20
[1]
  Ki: 0.7 nM

## CCCNC(=O)c1c(N)c2cccc(-c3cc(OCc4cccc(OC)n4)ccc3F)c2[nH]c1=O [Example 89, 4-Amino-8-[2-fluoro-5-[(6-methoxy-2-pyridyl)methoxy]phenyl]-2-oxo-N-propyl-1H-quinoline-3-carboxamide]
Human α2β3γ2 GABAARs
  α2-GABAAR Relative Efficacy (vs. Diazepam): 0.3
[1]
  Ki: 1.55 nM

## CCCNC(=O)c1c(N)c2cccc(-c3cncc(OC4CC4)c3)c2[nH]c1=O [Example 28, 4-Amino-8-(5-cyclopropoxypyridin-3-yl)-2-oxo-N-propyl-1,2-dihydroquinoline-3-carboxamide]
Human α2β3γ2 GABAARs
  α2-GABAAR Relative Efficacy (vs. Diazepam): 0.2
[1]
  Ki: 9.07 nM

## CCCNC(=O)c1c(N)c2cccc(-c3cc(OCc4nc(C)cs4)ccc3F)c2[nH]c1=O [Example 118, 4-Amino-8-[2-fluoro-5-[(4-methylthiazol-2-yl)methoxy]phenyl]-2-oxo-N-propyl-1H-quinoline-3-carboxamide]
Human α2β3γ2 GABAARs
  α2-GABAAR Relative Efficacy (vs. Diazepam): 0.29
[1]
  Ki: 0.5 nM

## CCCNC(=O)c1c(N)c2cccc(-c3cc(C)ncc3F)c2[nH]c1=O [Example 33, 4-Amino-8-(5-fluoro-2-methyl-4-pyridyl)-2-oxo-N-propyl-1H-quinoline-3-carboxamide]
Human α2β3γ2 GABAARs
  α2-GABAAR Relative Efficacy (vs. Diazepam): 0.39
[1]
  Ki: 0.67 nM

## CCCNC(=O)c1c(N)c2cccc(-c3cc(COc4ccccn4)ncc3F)c2[nH]c1=O [Example 104, 4-Amino-8-(5-fluoro-2-((pyridin-2-yloxy)methyl)pyridin-4-yl)-2-oxo-N-propyl-1,2-dihydroquinoline-3-carboxamide]
Human α2β3γ2 GABAARs
  α2-GABAAR Relative Efficacy (vs. Diazepam): 0.27
[1]
  Ki: 2.08 nM

## COCCNC(=O)c1c(N)c2cccc(-c3cnccc3OC)c2[nH]c1=O [Example 63, 4-Amino-N-(2-methoxyethyl)-8-(4-methoxy-3-pyridyl)-2-oxo-1H-quinoline-3-carboxamide]
Human α2β3γ2 GABAARs
  α2-GABAAR Relative Efficacy (vs. Diazepam): 0.65
[1]
  Ki: 24.5 nM

## CCCNC(=O)c1c(N)c2cccc(-c3cncc(F)c3)c2[nH]c1=O [Example 22, 4-Amino-8-(5-fluoro-3-pyridyl)-2-oxo-N-propyl-1H-quinoline-3-carboxamide]
Human α2β3γ2 GABAARs
  α2-GABAAR Relative Efficacy (vs. Diazepam): 0.19
[1]
  Ki: 13.6 nM

## CCCNC(=O)c1c(N)c2cccc(-c3ccnc(C)n3)c2[nH]c1=O [Example 38, 4-Amino-8-(2-methylpyrimidin-4-yl)-2-oxo-N-propyl-1,2-dihydroquinoline-3-carboxamide]
Human α2β3γ2 GABAARs
  α2-GABAAR Relative Efficacy (vs. Diazepam): 0.18
[1]
  Ki: 1.09 nM

## CCNC(=O)c1c(N)c2cccc(-c3cnccc3OC)c2[nH]c1=O [Example 56, 4-Amino-N-ethyl-8-(4-methoxy-3-pyridyl)-2-oxo-1H-quinoline-3-carboxamide]
Human α2β3γ2 GABAARs
  α2-GABAAR Relative Efficacy (vs. Diazepam): 0.34
[1]
  Ki: 6.62 nM

## CCCNC(=O)c1c(N)c2cccc(-c3cc(OCc4cc[nH]n4)ccc3F)c2[nH]c1=O [Example 127, 4-Amino-8-[2-fluoro-5-(1H-pyrazol-3-ylmethoxy)phenyl]-2-oxo-N-propyl-1H-quinoline-3-carboxamide]
Human α2β3γ2 GABAARs
  α2-GABAAR Relative Efficacy (vs. Diazepam): 0.24
[1]
  Ki: 0.78 nM

## CCCNC(=O)c1c(N)c2cccc(-c3cccc(OC(F)(F)F)n3)c2[nH]c1=O [Example 1, 4-Amino-2-oxo-N-propyl-8-[6-(trifluoromethoxy)-2-pyridyl]-1H-quinoline-3-carboxamide]
Human α2β3γ2 GABAARs
  α2-GABAAR Relative Efficacy (vs. Diazepam): 0.13
[1]
  Ki: 0.79 nM

## CCCNC(=O)c1c(N)c2cccc(-c3ccc(CO)nc3)c2[nH]c1=O [Example 30, 4-Amino-8-[6-(hydroxymethyl)-3-pyridyl]-2-oxo-N-propyl-1H-quinoline-3-carboxamide]
Human α2β3γ2 GABAARs
  α2-GABAAR Relative Efficacy (vs. Diazepam): 0.43
[1]
  Ki: 4.76 nM

## Cc1nn(C)cc1-c1cccc2c(N)c(C(=O)NCC(C)C)c(=O)n(C)c12 [Example 82, 4-Amino-8-(1,3-dimethylpyrazol-4-yl)-N-isobutyl-1-methyl-2-oxo-quinoline-3-carboxamide]
Human α2β3γ2 GABAARs
  α2-GABAAR Relative Efficacy (vs. Diazepam): 0.31
[1]
  Ki: 6.66 nM

## CCCNC(=O)c1c(N)c2cccc(-c3cc(CN4CC5(CCOCC5)C4)ccc3F)c2[nH]c1=O [Example 141, hydrochloride]
Human α2β3γ2 GABAARs
  α2-GABAAR Relative Efficacy (vs. Diazepam): 0.36
[1]
  Ki: 2.61 nM

## CCCNC(=O)c1c(N)c2cccc(-c3cc(OCc4ccncc4)ccc3F)c2[nH]c1=O [Example 113, 4-Amino-8-[2-fluoro-5-(4-pyridylmethoxy)phenyl]-2-oxo-N-propyl-1H-quinoline-3-carboxamide]
Human α2β3γ2 GABAARs
  α2-GABAAR Relative Efficacy (vs. Diazepam): 0.24
[1]
  Ki: 0.12 nM

## CCCNC(=O)c1c(N)c2cccc(-c3cc(OCc4ccc5[nH]cnc5c4)ccc3F)c2[nH]c1=O [Example 133, 8-(5-((1H-Benzo[d]imidazol-5-yl)methoxy)-2-fluorophenyl)-4-amino-2-oxo-N-propyl-1,2-dihydroquinoline-3-carboxamide]
Human α2β3γ2 GABAARs
  α2-GABAAR Relative Efficacy (vs. Diazepam): 0.23
[1]
  Ki: 1.29 nM

## CCCNC(=O)c1c(N)c2cccc(-c3cc(OCc4coc(C(C)C)n4)ccc3F)c2[nH]c1=O [Example 123, 4-Amino-8-[2-fluoro-5-[(2-isopropyloxazol-4-yl)methoxy]phenyl]-2-oxo-N-propyl-1H-quinoline-3-carboxamide]
Human α2β3γ2 GABAARs
  α2-GABAAR Relative Efficacy (vs. Diazepam): 0.2549
[1]
  Ki: 1.71 nM

## CCCNC(=O)c1c(N)c2cccc(-c3cc(OCc4cccc(C(F)(F)F)n4)ccc3F)c2[nH]c1=O [Example 90, 4-Amino-8-[2-fluoro-5-[[6-(trifluoromethyl)-2-pyridyl]methoxy]phenyl]-2-oxo-N-propyl-1H-quinoline-3-carboxamide]
Human α2β3γ2 GABAARs
  α2-GABAAR Relative Efficacy (vs. Diazepam): 0.18
[1]
  Ki: 3 nM
